Measurements published in patent US11618743B2, “Herbicidal compounds” (SYNGENTA PARTICIPATIONS AG, priority 2017, dated 2023).

Tests used:
Assay in all cases: Post-emergence efficacy, Method A
Type in all cases: in vivo
[1] = system: Amaranthus palmeri (AMAPA); settings: Application rate 500 g/Ha, evaluated after 13 days; for Control of weed species after post-emergence application, AMAPA: 100=total damage to plant, 0=no damage; for Control of weed species AMAPA after post-emergence application (100=total damage to plant; 0=no damage to plant): Method A
Protocol: (§1) Seeds of a variety of test species were sown in standard soil in pots. After cultivation for 14 days (post-emergence) under controlled conditions in a glasshouse (at 24/16° C., day/night; 14 hours light; 65% humidity), the plants were sprayed with an aqueous spray solution derived from the dissolution of the technical active ingredient formula (I) in a small amount of acetone and a special solvent and emulsifier mixture referred to as IF50 (11.12% Emulsogen EL360 TM+44.44% N-methylpyrrolidone+44.44% Dowanol DPM glycol ether), to create a 50 g/l solution which was then diluted to required concentration using 0.25% or 1% Empicol ESC70 (Sodium lauryl ether sulphate)+1% ammonium sulphate as diluent.
(§2) The test plants were then grown in a glasshouse under controlled conditions (at 24/16° C., day/night; 14 hours light; 65% humidity) and watered twice daily. After 13 days the test was evaluated (100=total damage to plant; 0=no damage to plant).
(§3) Ipomoea hederacea (IPOHE), Euphorbia heterophylla (EPHHL), Chenopodium album (CHEAL), Amaranthus palmeri (AMAPA), Lolium perenne (LOLPE), Digitaria sanguinalis (DIGSA), Eleusine indica (ELEIN), Echinochloa crus-galli (ECHCG), Setaria faberi (SETFA)

[2] = system: Chenopodium album (CHEAL); settings: Application rate 500 g/Ha, evaluated after 13 days; for Control of weed species after post-emergence application, CHEAL: 100=total damage to plant, 0=no damage; for Control of weed species CHEAL after post-emergence application (100=total damage to plant; 0=no damage to plant): Method A
Protocol: as §1, §2, §3

[3] = system: Digitaria sanguinalis (DIGSA); settings: Application rate 500 g/Ha, evaluated after 13 days; for Control of weed species after post-emergence application, DIGSA: 100=total damage to plant, 0=no damage; for Control of weed species DIGSA after post-emergence application (100=total damage to plant; 0=no damage to plant): Method A
Protocol: as §1, §2, §3

[4] = system: Echinochloa crus-galli (ECHCG); settings: Application rate 500 g/Ha, evaluated after 13 days; for Control of weed species after post-emergence application, ECHCG: 100=total damage to plant, 0=no damage; for Control of weed species ECHCG after post-emergence application (100=total damage to plant; 0=no damage to plant): Method A
Protocol: as §1, §2, §3

Eleusine indica (ELEIN) = settings: Application rate 500 g/Ha, evaluated after 13 days; for Control of weed species after post-emergence application, ELEIN: 100=total damage to plant, 0=no damage; for Control of weed species ELEIN after post-emergence application (100=total damage to plant; 0=no damage to plant): Method A
Protocol: as §1, §2, §3

[5] = system: Euphorbia heterophylla (EPHHL); settings: Application rate 500 g/Ha, evaluated after 13 days; for Control of weed species after post-emergence application, EPHHL: 100=total damage to plant, 0=no damage; for Control of weed species EPHHL after post-emergence application (100=total damage to plant; 0=no damage to plant): Method A
Protocol: as §1, §2, §3

Setaria faberi (SETFA) = settings: Application rate 500 g/Ha, evaluated after 13 days; for Control of weed species after post-emergence application, SETFA: 100=total damage to plant, 0=no damage; for Control of weed species SETFA after post-emergence application (100=total damage to plant; 0=no damage to plant): Method A
Protocol: as §1, §2, §3

Nc1nccc(-c2cc[n+](CCC(=O)O)nc2)n1.O=C([O-])C(F)(F)F [Compound A160]
Control of weed species after post-emergence application, AMAPA [1]: 100
Control of weed species after post-emergence application, CHEAL [2]: 100
Control of weed species after post-emergence application, DIGSA [3]: 70
Control of weed species after post-emergence application, ECHCG [4]: 70
Control of weed species after post-emergence application, ELEIN (Eleusine indica (ELEIN)): 80
Control of weed species after post-emergence application, EPHHL [5]: 90
Control of weed species after post-emergence application, SETFA (Setaria faberi (SETFA)): 90

COC(=O)CC[n+]1ccc(-c2ccncc2)cn1.O=C([O-])C(F)(F)F [Compound A203]
Control of weed species after post-emergence application, AMAPA [1]: 100
Control of weed species after post-emergence application, CHEAL [2]: 90
Control of weed species after post-emergence application, DIGSA [3]: 70
Control of weed species after post-emergence application, ECHCG [4]: 50
Control of weed species after post-emergence application, ELEIN (Eleusine indica (ELEIN)): 60
Control of weed species after post-emergence application, EPHHL [5]: 50
Control of weed species after post-emergence application, SETFA (Setaria faberi (SETFA)): 60

O=C(O)CC[n+]1ccc(-c2ccnc(C(F)(F)F)c2)cn1.O=C([O-])C(F)(F)F [Compound A166]
Control of weed species after post-emergence application, AMAPA [1]: 30
Control of weed species after post-emergence application, CHEAL [2]: 50
Control of weed species after post-emergence application, DIGSA [3]: 70
Control of weed species after post-emergence application, ECHCG [4]: 50
Control of weed species after post-emergence application, ELEIN (Eleusine indica (ELEIN)): 60
Control of weed species after post-emergence application, EPHHL [5]: 60
Control of weed species after post-emergence application, SETFA (Setaria faberi (SETFA)): 40

Cc1cncc(-c2cc[n+](CCC(=O)O)nc2)n1.O=C([O-])C(F)(F)F [Compound A85]
Control of weed species AMAPA after post-emergence application (100=total damage to plant; 0=no damage to plant) [1]: 90
Control of weed species CHEAL after post-emergence application (100=total damage to plant; 0=no damage to plant) [2]: 90
Control of weed species DIGSA after post-emergence application (100=total damage to plant; 0=no damage to plant) [3]: 90
Control of weed species ECHCG after post-emergence application (100=total damage to plant; 0=no damage to plant) [4]: 70
Control of weed species ELEIN after post-emergence application (100=total damage to plant; 0=no damage to plant) (Eleusine indica (ELEIN)): 90
Control of weed species EPHHL after post-emergence application (100=total damage to plant; 0=no damage to plant) [5]: 100
Control of weed species SETFA after post-emergence application (100=total damage to plant; 0=no damage to plant) (Setaria faberi (SETFA)): 90

COC(=O)CC[n+]1ccc(-c2ncccn2)cn1.O=C([O-])C(F)(F)F [Compound A54, methyl 3-(4-pyrimidin-2-ylpyridazin-1-ium-1-yl)propanoate 2,2,2-trifluoroacetate]
Control of weed species AMAPA after post-emergence application (100=total damage to plant; 0=no damage to plant) [1]: 90
Control of weed species CHEAL after post-emergence application (100=total damage to plant; 0=no damage to plant) [2]: 90
Control of weed species DIGSA after post-emergence application (100=total damage to plant; 0=no damage to plant) [3]: 100
Control of weed species ECHCG after post-emergence application (100=total damage to plant; 0=no damage to plant) [4]: 90
Control of weed species ELEIN after post-emergence application (100=total damage to plant; 0=no damage to plant) (Eleusine indica (ELEIN)): 100
Control of weed species EPHHL after post-emergence application (100=total damage to plant; 0=no damage to plant) [5]: 70
Control of weed species SETFA after post-emergence application (100=total damage to plant; 0=no damage to plant) (Setaria faberi (SETFA)): 100

O=C(O)CC[n+]1ccc(-c2ccccn2)cn1.O=C([O-])C(F)(F)F [Compound A148]
Control of weed species AMAPA after post-emergence application (100=total damage to plant; 0=no damage to plant) [1]: 100
Control of weed species CHEAL after post-emergence application (100=total damage to plant; 0=no damage to plant) [2]: 40
Control of weed species DIGSA after post-emergence application (100=total damage to plant; 0=no damage to plant) [3]: 50
Control of weed species ECHCG after post-emergence application (100=total damage to plant; 0=no damage to plant) [4]: 50
Control of weed species ELEIN after post-emergence application (100=total damage to plant; 0=no damage to plant) (Eleusine indica (ELEIN)): 40
Control of weed species EPHHL after post-emergence application (100=total damage to plant; 0=no damage to plant) [5]: 60
Control of weed species SETFA after post-emergence application (100=total damage to plant; 0=no damage to plant) (Setaria faberi (SETFA)): 50

O=C([O-])C(F)(F)F.O=S(=O)(O)CCC[n+]1ccc(-c2cnccn2)cn1 [Compound A10]
Control of weed species AMAPA after post-emergence application (100=total damage to plant; 0=no damage to plant) [1]: 100
Control of weed species CHEAL after post-emergence application (100=total damage to plant; 0=no damage to plant) [2]: 100
Control of weed species DIGSA after post-emergence application (100=total damage to plant; 0=no damage to plant) [3]: 60
Control of weed species ECHCG after post-emergence application (100=total damage to plant; 0=no damage to plant) [4]: 30
Control of weed species ELEIN after post-emergence application (100=total damage to plant; 0=no damage to plant) (Eleusine indica (ELEIN)): 50
Control of weed species EPHHL after post-emergence application (100=total damage to plant; 0=no damage to plant) [5]: 100
Control of weed species SETFA after post-emergence application (100=total damage to plant; 0=no damage to plant) (Setaria faberi (SETFA)): 60

O=C(O)CC[n+]1ccc(-c2ncc(C(F)(F)F)cc2Cl)cn1.O=C([O-])C(F)(F)F [Compound A197]
Control of weed species after post-emergence application, AMAPA [1]: 100
Control of weed species after post-emergence application, CHEAL [2]: 10
Control of weed species after post-emergence application, DIGSA [3]: 20
Control of weed species after post-emergence application, ECHCG [4]: 0
Control of weed species after post-emergence application, ELEIN (Eleusine indica (ELEIN)): 10
Control of weed species after post-emergence application, EPHHL [5]: 10
Control of weed species after post-emergence application, SETFA (Setaria faberi (SETFA)): 0
